The text below walks through data of patent US7141592B2, “Substituted oxadiazolidinediones” (Wyeth, priority 2003, dated 2006).

One assay deals with human PAI-1 (Homo sapiens, UniProt P05121). Description: Assay for determining IC50 of inhibition of PAI-1 (active PAI-1 bound to tPA-coated plate, 33B8 antibody detection). It is filed as biochemical. To be noted: values carry suffix (K), not defined in the patent. The protocol: This assay is based upon the non-SDS dissociable interaction between tPA and active PAI-1. Assay plates are initially coated with human tPA (10 μg/ml). Substituted oxadiazolidinediones of the present invention are dissolved in DMSO at 10 mM, then diluted with physiologic buffer (pH 7.5) to a final concentration of 1–50 μM. Test compounds are incubated with human PAI-1 (50 ng/ml) for 15 minutes at room temperature. The tPA-coated plate is washed with a solution of 0.05% Tween 20 and 0.1% BSA, then the plate is blocked with a solution of 3% BSA. An aliquot of the substituted oxadiazolidinedione/PAI-1 solution is then added to the tPA-coated plate, incubated at room temperature for 1 hour, and washed. Active PAI-1 bound to the plate is assessed by adding an aliquot of a 1:1000 dilution of the 33B8 monoclonal antibody against human PAI-1, and incubating the plate at room temperature for 1 hour (Molecular Innovations, Royal Oak, Mich.). The plate is again washed, and a solution of goat anti-mouse IgG-alkaline phosphatase conjugate is added at a 1:50,000 dilution in goat serum. The plate is incubated 30 minutes at room temperature, washed, and a solution of alkaline phosphatase substrate is added. The plate is incubated 45 minutes at room temperature, and color development is determined at OD405nm. The quantitation of active PAI-1 bound to tPA at varying concentrations of the substituted oxadiazolidinedione is used to determine the IC50. Results are analyzed using a logarithmic best-fit equation. The assay sensitivity is 5 ng/ml of human PAI-1 as determined from a standard curve ranging from 0–100 ng/ml.

Assay [1] has as its target T1, recombinant human plasminogen activator inhibitor-1 (PAI-1) (Homo sapiens, UniProt P05121).
T1 construct: purchased Molecular Innovations, Royal Oak, Mich
Kind of assay: Primary screen for the PAI-1 inhibition (chromogenic tPA activity, Spectrozyme-tPA). To be noted: compound at 100 μM. The format is biochemical. In a few lines: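 Compound (1–100 μM, ≤0.2% DMSO) preincubated 1 h at room temperature with 140 nM recombinant human PAI-1 at pH 6.6. 70 nM recombinant human tPA then added for 30 min, followed by chromogenic Spectrozyme-tPA read at 405 nm at 0 and 60 min. Inhibition expressed as residual tPA activity.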

Sequence of human PAI-1 (P05121 24-402): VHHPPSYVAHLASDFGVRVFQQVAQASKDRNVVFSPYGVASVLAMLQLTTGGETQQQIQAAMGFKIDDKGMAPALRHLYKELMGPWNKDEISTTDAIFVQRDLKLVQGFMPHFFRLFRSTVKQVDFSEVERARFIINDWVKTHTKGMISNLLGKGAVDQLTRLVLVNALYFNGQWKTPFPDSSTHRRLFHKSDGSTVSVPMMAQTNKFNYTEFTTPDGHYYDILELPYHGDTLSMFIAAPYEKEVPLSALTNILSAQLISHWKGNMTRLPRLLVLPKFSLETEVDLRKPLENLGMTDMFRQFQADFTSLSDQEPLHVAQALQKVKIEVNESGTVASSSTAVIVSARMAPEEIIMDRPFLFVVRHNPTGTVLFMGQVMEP
T1 sequence (P05121 24-402): as above

Regarding `O=c1[nH]c(=O)n(Cc2cn(Cc3ccccc3)c3ccc(OCc4cccc(Cl)c4)cc23)o1` [Compound 9, 2-({1-benzyl-5-[(3-chlorobenzyl)oxy]-1H-indol-3-yl}methyl)-1,2,4-oxadiazolidine-3,5-dione], half-maximal inhibition against human PAI-1 (IC50) required 26.5 µM. Also, the inhibition (commonly the relative decrease from the control value, in per cent) at 100 µM in assay [1] was 92%.
For the molecule `O=c1[nH]c(=O)n(Cc2cn(Cc3ccccc3)c3ccc(OCc4cccc(C(F)(F)F)c4)cc23)o1` [Compound 10, 2-[(1-benzyl-5-{[3-(trifluoromethyl)benzyl]oxy}-1H-indol-3-yl)methyl]-1,2,4-oxadiazolidine-3,5-dione], the IC50 (in general, the concentration that inhibits the measured activity by half) at human PAI-1 turned out to be 9.36 µM. Also, the inhibition at 100 µM in assay [1] turned out to be 92%.
In the case of `CC(C)(C)c1ccc(COc2ccc3c(c2)c(Cn2oc(=O)[nH]c2=O)cn3Cc2ccccc2)cc1` [Compound 1, 2-({1-benzyl-5-[(4-tert-butylbenzyl)oxy]-1H-indol-3-yl}methyl)-1,2,4-oxadiazolidine-3,5-dione], 13.8 µM corresponded to half-maximal inhibition against human PAI-1 (IC50). For the same molecule, the inhibition at 100 µM in assay [1] came out at 96%.
As to `O=c1[nH]c(=O)n(Cc2cccc(-c3cccc(OCc4cccc(Cl)c4)c3)c2)o1` [Compound 39, 2-({3′-[(3-chlorobenzyl)oxy]-1,1′-biphenyl-3-yl}methyl)-1,2,4-oxadiazolidine-3,5-dione], in assay [1], the inhibition at 100 µM came to 99%.
Same read-out and setting: in the case of `C#CCn1cc(Cn2oc(=O)[nH]c2=O)c2cc(OCc3ccc4ccccc4c3)ccc21` [Compound 20, 2-{[5-(2-naphthylmethoxy)-1-(2-propynyl)-1H-indol-3-yl]methyl}-1,2,4-oxadiazolidine-3,5-dione] it was 84%.
“2-({4′-[(4-bromobenzyl)oxy]-1,1′-biphenyl-3-yl}methyl)-1,2,4-oxadiazolidine-3,5-dione [Compound 50]”: the “% Inhibition @ 100 μM” value in assay [1] is 41%.
Consider `Cc1cccc(COc2ccc3c(c2)c(Cn2oc(=O)[nH]c2=O)cn3Cc2ccccc2)c1` [Compound 11, 2-({1-benzyl-5-[(3-methylbenzyl)oxy]-1H-indol-3-yl}methyl)-1,2,4-oxadiazolidine-3,5-dione], for which the inhibition at 100 µM in assay [1] came to 59%.
With `O=c1[nH]c(=O)n(Cc2cn(Cc3ccccc3)c3ccc(OCc4ccc(Br)cc4)cc23)o1` [Compound 14, 2-({1-benzyl-5-[(4-bromobenzyl)oxy]-1H-indol-3-yl}methyl)-1,2,4-oxadiazolidine-3,5-dione], the inhibition at 100 µM in assay [1] was 100%.
